Tested on: TET2CDΔLCI
Assay: Continuous reaction monitoring (1H NMR), 2OG decarboxylation
Format: biochemical, human
Settings: Supp Fig 10 a
Description: Double-stranded DNA oligomers were added at a final concentration of 20 µM. Data plotted from two independent replicates (n = 2). Initial rates reported as the mean of two independent replicates (n = 2). TEXT PRINTED IN THE PICTURE: (c) No DNA: V0 (μM min^−1) NgTet1: 0.36; V0 (μM min^−1) TET2: 1.28; Relative V0 NgTet1: 1; Relative V0 TET2: 1 | (c) ^5HC DNA: V0 (μM min^−1) NgTet1: 1.30; V0 (μM min^−1) TET2: 6.34; Relative V0 NgTet1: 3.6; Relative V0 TET2: 5.0 | (c) AT DNA: V0 (μM min^−1) NgTet1: 0.82; V0 (μM min^−1) TET2: 5.78; Relative V0 NgTet1: 2.3; Relative V0 TET2: 4.5 | (c) ^5mC DNA: V0 (μM min^−1) NgTet1: 1.52; V0 (μM min^−1) TET2: 6.79; Relative V0 NgTet1: 4.2; Relative V0 TET2: 5.3
All ^1H NMR spectra were recorded at 25 °C using D2O as a reference for internal deuterium lock on a Bruker Avance III 700 MHz equipped with an inverse TCI cryoprobe in 3 or 5 mm diameter tubes with a total sample volume of 160 or 565 μL, respectively. The water signal was reduced using Perfect Echo excitation sculpting suppression. Chemical shifts are reported in ppm relative to D2O (δH = 4.70 ppm).
Spectrometer settings were determined using a control sample containing all reaction components excluding enzyme. TET enzyme was added to an identical sample, and the resulting assay mixture was transferred to an NMR tube before deposition into the instrument. […] Data acquisition was started following a brief spectrometer setting optimisation (up to 200 s delay between enzyme addition and data acquisition); 8–32 scans were accumulated for a single spectrum, corresponding to 65–179 s of acquisition time. Spectrum recordings were carried out consecutively without delay. Data were processed using automated routines on MestReNova v14.2.0; signals of interest were integrated with absolute intensity scaling. ^1H NMR time courses reported in figures are representative results from two or three independent replicates.

“5HC DNA: non-methylated DNA of the same sequence, 5'-ACC ACC GGT GGT-3', non-substrate (DNA ACCACCGGTGGT; DNA, backbone not given here)” showed a succinate (Time 0 min) of 2.2 µM, a succinate (Time 2.5 min) of 3.9 µM and a succinate (Time 5 min) of 6.5 µM. For the same substance, the succinate (Time 7.5 min) was 9.5 µM, the succinate (Time 10 min) was 12.4 µM and the succinate (Time 15 min) was 17.3 µM. It also gave a succinate (Time 20 min) of 21.5 µM.

— paper PMC11662004 (Communications Chemistry, 2024)
